Measured values taken from ChEMBL document CHEMBL1128632, “The discovery of a series of new non-indole 5HT1D agonists” (Bioorg Med Chem Lett, 1995).

Assays:
Sus scrofa [1] = species on record: Sus scrofa; experiment: Ability to induce constriction of pig basilary artery; type: functional; settings: read-out: ED50 (the source's name)
Canis familiaris = species on record: Canis familiaris; experiment: Effective dose required to induce constriction of dog saphenous vein segments; type: functional; settings: Canis lupus familiaris, read-out: ED50 (the source's name)
[2] = target: T1, 5-hydroxytryptamine receptor 1A (Homo sapiens, UniProt P08908); experiment: Ability to bind to 5-hydroxytryptamine 1A receptor from cloned human expressed in Ha7 cells; type: cell-based
T1 sequence (P08908 whole entry): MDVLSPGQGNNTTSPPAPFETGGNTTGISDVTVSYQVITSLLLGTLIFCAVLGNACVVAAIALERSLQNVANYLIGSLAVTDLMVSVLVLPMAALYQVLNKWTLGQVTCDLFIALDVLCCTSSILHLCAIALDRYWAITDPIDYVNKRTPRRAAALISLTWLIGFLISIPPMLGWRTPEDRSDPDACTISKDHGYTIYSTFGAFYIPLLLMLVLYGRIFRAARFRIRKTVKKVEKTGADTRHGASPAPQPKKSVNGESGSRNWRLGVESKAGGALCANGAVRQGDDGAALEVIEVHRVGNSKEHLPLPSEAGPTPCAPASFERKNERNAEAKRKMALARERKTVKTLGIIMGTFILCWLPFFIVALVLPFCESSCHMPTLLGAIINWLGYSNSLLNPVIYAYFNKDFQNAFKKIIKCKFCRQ

[3] = target: T1, 5-hydroxytryptamine receptor 1A; experiment: Ability to bind to 5-hydroxytryptamine 1A receptor subtype from cloned human expressed in Ha7 cells; type: cell-based
Sus scrofa [4] = species on record: Sus scrofa; experiment: Ability to induce constriction of pig basilary artery.; type: functional; settings: read-out: ED50 (the source's name)

Compound	EC50 (Canis familiaris) [µM]	IC50 [2] [µM]	IC50 [3] [µM]	other results
CNS(=O)(=O)Cc1ccc2[nH]cc(CCN(C)C)c2c1	0.16			EC50 (Sus scrofa [1]): 0.558 µM
CC(C)/N=C(\NC#N)NCCCNCC1CCc2ccccc2O1 (stereo not given)	0.115	0.0158		
c1cnc(NCCNCC2CCc3ccccc3O2)nc1 (stereo not given)	0.06	0.0316		
c1ccc2c(c1)CCC(CNCCCNC1=NCCCN1)C2 (stereo not given)	0.615	0.126		
c1ccc2c(c1)CCC(CNCCCNc1nc3ccccc3[nH]1)O2 (stereo not given)	> 1	> 0.1		
c1ccc2c(c1)CCC(CNCCCNc1ccncn1)O2 (stereo not given)	0.0787	0.00501		
c1cnc(NCCCNCC2CCc3ccccc3O2)nc1 (stereo not given)	> 0.1	0.002		
c1ccc2c(c1)CCC(CNCCCCNC1=NCCCN1)O2 (stereo not given)	0.011		0.00794	
COc1cccc2c1CCC(CNCCCNC1=NCCCN1)O2 (stereo not given)	> 1		> 1	
c1ccc2c(c1)CCC(CNCCCNc1cnccn1)O2 (stereo not given)	0.0155	0.00398		
c1ccc(NCCCNCC2CCc3ccccc3O2)nc1 (stereo not given)	0.38	0.00126		
c1ccc2c(c1)CCC(CNCCCNC1=NCCN1)O2 (stereo not given)	0.0315	0.0126		
c1ccc2c(c1)CC[C@@H](CNCCCNC1=NCCCN1)O2	0.0515	0.0501		
c1ccc2c(c1)CC[C@H](CNCCCNC1=NCCCN1)O2	0.00909	0.00501		EC50 (Sus scrofa [4]; Sus scrofa): 0.0229 µM; EC50 (Sus scrofa [4]): 0.0292 µM
COc1cccc2c1OC(CNCCCNC1=NCCCN1)CC2 (stereo not given)	0.00209		0.00501	
c1ccc2c(c1)NCC(CNCCCNC1=NCCCN1)O2 (stereo not given)	> 1	> 1		
c1ccc2c(c1)CC(CNCCCNC1=NCCCN1)CO2 (stereo not given)	> 1	> 1		

Compound	EC50 (Canis familiaris) [µM]	IC50 [2] [µM]	IC50 [3] [µM]	other results
c1ccc2c(c1)CCC(CNCCCNC1=NCCCN1)O2 (stereo not given)	0.00453		0.0126	
CC1(CNCCCNC2=NCCCN2)CCc2ccccc2O1 (stereo not given)	> 1	> 1		
c1ccc2c(c1)CCC(CNCCNC1=NCCCN1)O2 (stereo not given)	0.0494		0.0158	
c1ccc2c(c1)CCC(CNCCCCCNC1=NCCCN1)O2 (stereo not given)	0.0152		0.00501	
COc1ccc2c(c1)CCC(CNCCCNC1=NCCCN1)O2 (stereo not given)	> 1		> 1	
Clc1ccc(NCCCNCC2CCc3ccccc3O2)nn1 (stereo not given)	> 0.1	0.000398		
c1ccc2c(c1)CCC(CNCCCNc1nccs1)O2 (stereo not given)	0.57	0.00158		
c1ccc2c(c1)OCC(CNCCCNC1=NCCCN1)O2 (stereo not given)	0.0665	0.02		
CCc1ccc2c(c1)OC(CNCCCNC1=NCCCN1)CC2 (stereo not given)	0.00193		0.00398	
Fc1ccc2c(c1)CCC(CNCCCNC1=NCCCN1)O2 (stereo not given)	0.0197		0.0251	
CC(C)/N=C(\N)NNCCCNCC1CCc2ccccc2O1 (stereo not given)	0.0048		0.00794	
O=C1CCCN=C(NCCCNCC2CCc3ccccc3O2)N1 (stereo not given)	> 1	0.002		
c1ccc2c(c1)CCC(CNCCCNC1=NCCCC1)O2 (stereo not given)	0.017	0.00631		
c1ccc2c(c1)CC(CNCCCNC1=NCCCN1)O2 (stereo not given)	> 1	0.0501		
CN1c2ccccc2CCC1CNCCCNC1=NCCCN1 (stereo not given)	> 1	> 1		
COc1ccc2c(c1)OC(CNCCCNC1=NCCCN1)CC2 (stereo not given)	0.0178		0.0126	
c1ccc2c(c1)CCCC(CNCCCNC1=NCCCN1)O2 (stereo not given)	> 1	> 1		
